# Measured values: patent US20240425812A1, “HYPOVENTILATION PHYSICAL MODELS AND APPLICATIONS THEREOF” (The University of Hong Kong, priority 2023, published 2024)
# What was measured:
# [1] = test system: HBSO neurons; assay: Multi-electrode array (MEA) analysis of dissociated day 60 HBSO neurons; format: cell-based, human; details: 10 μM, applied immediately before recording
# Method: The functionality of HBSO neurons, particularly their responses to hypercapnia, is further assessed using multi-electrode array (MEA) analyses. Briefly, Day 60 HBSOs arc dissociated with Papain Dissociation System (Worthington, LK003150) following the manufacturer's protocol. In brief, the HBSOs are digested with the papain solution in 37° C. incubator for 30 min with continuous shaking at 90 r.p.m. and then triturated with P1000 pipette. The triturated HBSOs are further digested in 37° C. incubator for an additional 10 min and then filtered through 40 μm cell strainer (Corning, 352340) to remove undigested cell debris. The dissociated cells are collected by centrifuging at 300×g for 5 min at room temperature. The cells are then resuspended with DNase/ovomucoid inhibitor solution to stop the digestion. […] MEA recordings are measured at 37° C. with 5-8% CO2 in a Maestro Edge MEA System (Axion Biosystems) to detect spontaneous firing of spikes. The MEA plate is pre-equilibrated in the MEA system for at least 5 min before measurement and each treatment is recorded for 5-10 min to calculate the mean spike firing rate. […] The MEA recordings are analyzed using the Neural Module of AxIS Navigator 1.5 software and the Neural Metric Tool software (Axion Biosystems). […]
# [2] = test system: HBSOs; assay: HBSO differentiation with WNT antagonist added on days 3-6 (growth, RT-qPCR of patterning markers at day 20); format: cell-based, human
# Method: To generate HSBOs, hPSCs are dissociated into single cell suspension by treating with 0.5 mM EDTA solution in DPBS and then Accutase as described above. 2.7×10^6 cells are seeded to a well of AggreWell800 24-well plate (STEMCELL Technologies, 34815) which contained 300 microwells per well (i.e. 9,000 cells per microwell). The cells are kept in mTeSR1 with 10 μM Y-27632 overnight in 37° C. incubator for the spheroid formation and they are marked as day 0 at this stage. At day 1, the spheroids from one well of Aggre Well800 are split into 3 wells of 6-well ultra-low-attachment plate containing Neural Induction Medium (DMEM/F12, 1% N2 supplement (v/v), 1% GlutaMAX supplement (v/v), 1% MEM-NEAA (v/v) and 1 μg ml^−1 Heparin) supplemented with BMP inhibitor LDN-193189 (1 μM) and TGF-β inhibitor SB431542 (10 μM). […]
# Total RNA from HCOs and HBSOs are extracted by RNeasy Mini Kit (Qiagen) and the RNA concentrations are determined by Nanodrop 1000 Spectrophotometer (Thermo Fisher Scientific). […] Fluorescence is measured by ViiA 7 Real-Time PCR System (Thermo Fisher Scientific) at the end of each cycle. […]
structure (smiles),measurement,setting,value
"NCCc1c[nH]c2ccc(O)cc12 [5-HT, serotonin]",firing of HBSO neurons,[1]; FIG. 1J,capable of enhancing the firing
O=C(Nc1cccc2cccnc12)c1ccc(N2C(=O)[C@@H]3[C@H](C2=O)[C@@H]2C=C[C@H]3C2)cc1 [IWR1-endo],favoring the dB2 domain formation (PHOX2B expression),"[2]; 1 μM or 10 μM, day 20 RT-qPCR, FIG. 1D",does not provide additional benefits
same,growth of the HBSOs,[2]; 10 μM,inhibited the growth
CC1CCN(CC[C@H]2CCCN2S(=O)(=O)c2cccc(O)c2)CC1 [SB269970],hypercapnia responses of HBSO neurons,[1]; FIG. 1K,counteraction of these responses
